Measurements taken from patent US20230234969A1, “N-LINKED MACROCYCLIC 7-(PYRAZOL-5-YL)-INDOLE DERIVATIVES AS INHIBIORS OF MCL-1” (Janssen Pharmaceutica NV, priority 2020, published 2023).

Assays:
[1] = target: Myeloid Cell Leukemia 1 (Mcl-1) (Homo sapiens, UniProt Q07820); test: Terbium labeled Mcl-1 HTRF binding assay, displacement of Cy5-labeled BIM BH3 peptide; conditions: 25 pM Tb-Mcl-1, 8 nM Cy5 Bim peptide, Ki=IC50/(1+[L]/Kd), [L]=8 nM, Kd=10 nM, 60 min room temperature, read-out: Tb-MCLl Ki
Myeloid Cell Leukemia 1 (Mcl-1), sequence (Q07820 whole entry): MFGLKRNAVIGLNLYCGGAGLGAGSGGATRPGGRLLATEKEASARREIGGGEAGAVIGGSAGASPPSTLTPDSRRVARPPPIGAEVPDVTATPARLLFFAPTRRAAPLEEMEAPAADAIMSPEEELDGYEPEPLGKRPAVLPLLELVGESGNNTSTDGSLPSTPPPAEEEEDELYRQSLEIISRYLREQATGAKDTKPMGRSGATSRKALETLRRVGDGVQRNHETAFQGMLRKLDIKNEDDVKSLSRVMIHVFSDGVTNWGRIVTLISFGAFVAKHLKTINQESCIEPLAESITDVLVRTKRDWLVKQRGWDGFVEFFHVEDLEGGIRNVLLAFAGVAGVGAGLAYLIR
Experimental: Terbium labeled Myeloid Cell Leukemia 1 (Mcl-1) homogeneous time-resolved fluorescence (HTRF) binding assay utilizing the BIM BH3 peptide (H2N-(C/Cy5Mal) WIAQELRRIGDEFN-OH) as the binding partner for Mcl-1.
This assay evaluated inhibition of the BH3 domain: Mcl-1 interaction by measuring the displacement of Cy5-labeled BIM BH3 peptide (H2N—(C/Cy5Mal) WIAQELRRIGDEFN-OH) in the HTRF assay format.
The following assay and stock buffers were prepared for use in the assay: (a) Stock buffer: 10 mM Tris-HCl, pH=7.5+150 mM NaCl, filtered, sterilized, and stored at 4° C.; and (b) 1×assay buffer, where the following ingredients were added fresh to stock buffer: 2 mM dithiothreitol (DTT), 0.0025% Tween-20, 0.1 mg/mL bovine serum albumin (BSA). The 1×Tb-Mcl-1+Cy5 Bim peptide solution was prepared by diluting the protein stock solution using the 1×assay buffer (b) to 25 pM Tb-Mcl-1 and 8 nM Cy5 Bim peptide.
Using the Acoustic ECHO, 100 nL of 100×test compound(s) were dispensed into individual wells of a white 384-well Perkin Elmer Proxiplate, for a final compound concentration of 1× and final DMSO concentration of 1%. Inhibitor control and neutral control (NC, 100 nL of 100% DMSO) were stamped into columns 23 and 24 of assay plate, respectively. Into each well of the plate was then dispensed 10 μL of the 1×Tb-Mcl-1+Cy5 Bim peptide solution. The plate was centrifuged with a cover plate at 1000 rpm for 1 minute, then incubated for 60 minutes at room temperature with plates covered. The TR-FRET signal was read on an BMG PHERAStar FSX MicroPlate Reader at room temperature using the HTRF optic module (HTRF: excitation: 337 nm, light source: laser, emission A: 665 nm, emission B: 620 nm, integration start: 60 μs, integration time: 400 μs).
The BMG PHERAStar FSX MicroPlate Reader was used to measure fluorescence intensity at two emission wavelengths—665 nm and 620 nm—and report relative fluorescence units (RFU) for both emissions, as well as a ratio of the emissions (665 nm/620 nm)*10,000. The RFU values were normalized to percent inhibition as follows:
% inhibition=(((NC−IC)−(compound−IC))/(NC−IC))*100
where IC (inhibitor control, low signal)=mean signal of 1×Tb-MCl-1+Cy5 Bim peptide+inhibitor control or 100% inhibition of Mcl-1; NC (neutral control, high signal)=mean signal 1×Tb-MCl-1+Cy5 Bim peptide with DMSO only or 0% inhibition
An 11-point dose response curve was generated to determine IC50 values (using GenData) based on the following equation:
Y=Bottom+(Top−Bottom)/(1+10^((log IC50−X)*HillSlope))
where Y=% inhibition in the presence of X inhibitor concentration; Top=100% inhibition derived from the IC (mean signal of Mcl-1+inhibitor control); Bottom=0% inhibition derived from the NC (mean signal of Mcl-1+DMSO); Hillslope=Hill coefficient; and IC50=concentration of compound with 50% inhibition in relation to top/neutral control (NC).
In this assay [L]=8 nM and Kd=10 nM
Representative compounds of the present invention were tested according to the procedure as described above, with results as listed in the Table below (n.d. means not determined).

[2] = test system: MOLP-8 human multiple myeloma cell line; test: Caspase-Glo 3/7 assay in MOLP-8 cells (apoptosis induction); type: cell-based; conditions: MOLP8 cells, 2 hours incubation at 37° C.; averaged values over all runs on all batches
Description: MCL-1 is a regulator of apoptosis and is highly over-expressed in tumor cells that escape cell death. The assay evaluates the cellular potency of small-molecule compounds targeting regulators of the apoptosis pathway, primarily MCL-1, Bfl-1, Bcl-2, and other proteins of the Bcl-2 family. Protein-protein inhibitors disrupting the interaction of anti-apoptotic regulators with BH3-domain proteins initiate apoptosis.
The Caspase-Glo® 3/7 Assay is a luminescent assay that measures caspase-3 and -7 activities in purified enzyme preparations or cultures of adherent or suspension cells. The assay provides a proluminescent caspase-3/7 substrate, which contains the tetrapeptide sequence DEVD. This substrate is cleaved to release aminoluciferin, a substrate of luciferase used in the production of light. Addition of the single Caspase-Glo® 3/7 Reagent in an “add-mix-measure” format results in cell lysis, followed by caspase cleavage of the substrate and generation of a “glow-type” luminescent signal.
This assay uses the MOLP-8 human multiple myeloma cell line, which is sensitive to MCL-1 inhibition.
Cell cultures were maintained between 0.2 and 2.0×10^6 cells/mL. The cells were harvested by collection in 50 mL conical tubes. The cells were then pelleted at 500 g for 5 mins before removing supernatant and resuspension in fresh pre-warmed culture medium. The cells were counted and diluted as needed.
The assay reagent was prepared by transferring the buffer solution to the substrate vial and mixing. The solution may be stored for up to 1 week at 4° C. with negligible loss of signal.
Compounds were delivered in assay-ready plates (Proxiplate) and stored at −20° C. Assays always include 1 reference compound plate containing reference compounds. The plates were spotted with 40 nL of compounds (0.5% DMSO final in cells; serial dilution; 30 μM highest conc. 1/3 dilution, 10 doses, duplicates). The compounds were used at room temperature and 4 μL of pre-warmed media was added to all wells except column 2 and 23. The negative control was prepared by adding 1% DMSO in media. The positive control was prepared by adding the appropriate positive control compound in final concentration of 60 μM in media. The plate was prepared by adding 4 μL negative control to column 23, 4 μL positive control to column 2 and 4 μL cell suspension to all wells in the plate. The plate with cells was then incubated at 37° C. for 2 hours. The assay signal reagent is the Caspase-Glo solution described above, and 8 μL was added to all wells. The plates were then sealed and measured after 30 minutes.
The activity of a test compound was calculated as percent change in apoptosis induction as follows:
[formula] % Effect (AC50)=100−((sample−LC)/(HC−LC))*100
% Control=(sample/HC)*100
% Control min=(sample−LC)/(HC−LC)*100

SMILES | Ki [1] [nM] | AC50 [2] [nM]
Cc1nn2c(c1C)-c1c(Cl)ccc3c(c(C(=O)O)n(C)c13)CCCOc1cc(cc3ccccc13)SCc1cc(nn1C)CCC2 (single isomer, unassigned) [Compound 1] | 0.09 | 67
Cc1nn2c(c1C)-c1c(Cl)ccc3c(c(C(=O)O)n(C)c13)CCCOc1cc(cc3ccccc13)SCc1cc(nn1C)CCC2 (single isomer, unassigned) [Compound 2] | 3.21 | 2710
CCn1c(C(=O)O)c2c3ccc(Cl)c(c31)-c1c(C)c(C)nn1CCCc1cc(n(C)n1)CCc1cc(c3ccc(F)cc3c1)OCCC2 (single isomer, unassigned) [Compound 3] | 0.043 | 36
CCn1c(C(=O)O)c2c3ccc(Cl)c(c31)-c1c(C)c(C)nn1CCCc1cc(n(C)n1)CCc1cc(c3ccc(F)cc3c1)OCCC2 (single isomer, unassigned) [Compound 4] | 33.7 | 13100
COCCOCCn1c(C(=O)O)c2c3ccc(Cl)c(c31)-c1c(C)c(C)nn1CCCc1cc(n(C)n1)CCc1cc(c3ccc(F)cc3c1)OCCC2 (single isomer, unassigned) [Compound 5] | 0.027 | 27
COCCOCCn1c(C(=O)O)c2c3ccc(Cl)c(c31)-c1c(C)c(C)nn1CCCc1cc(n(C)n1)CCc1cc(c3ccc(F)cc3c1)OCCC2 (single isomer, unassigned) [Compound 6] | 1.93 | 1930
CCn1c(C(=O)O)c2c3ccc(Cl)c(c31)-c1c(C)c(C)nn1CCCc1cc(n(CCN(C)C)n1)CCc1cc(c3ccc(F)cc3c1)OCCC2 (single isomer, unassigned) [Compound 7] | 0.052 | 16
CCn1c(C(=O)O)c2c3ccc(Cl)c(c31)-c1c(C)c(C)nn1CCCc1cc(n(CCN(C)C)n1)CCc1cc(c3ccc(F)cc3c1)OCCC2 (single isomer, unassigned) [Compound 8] | 8.06 | 1560
CCn1c(C(=O)O)c2c3ccc(Cl)c(c31)-c1c(C)c(C)nn1CCCc1cc(n(CCOC)n1)CCc1cc(c3ccc(F)cc3c1)OCCC2 (single isomer, unassigned) [Compound 9] | 0.061 | 53
CCn1c(C(=O)O)c2c3ccc(Cl)c(c31)-c1c(C)c(C)nn1CCCc1cc(n(CCOC)n1)CCc1cc(c3ccc(F)cc3c1)OCCC2 (single isomer, unassigned) [Compound 10] | 3.06 | 3060
